{
  "source": "patent US10506810B2",
  "about": "“Synergistic herbicidal composition” (QINGDAO KINGAGROOT RESISTANT WEED MANAGEMENT CO., LTD., priority 2015, dated 2019)",
  "key": {"Capsella bursa-pastoris": {"test_system": "Capsella bursa-pastoris", "assay": "pot-culture method, stem and leaf treatment in greenhouse, fresh weight inhibition rate 20 days after treatment (Gowing method)", "format": "in vivo", "procedure": "(§1) Capsella bursa-pastoris, Myosoton aquaticum, Alopecurus japonicus were collected from corn fields in Huangdao Experimental Base of Shandong Province.\n(§2) The above weeds were cultivated by a pot culture method. […] Full and uniform weed seeds were selected, soaked in warm water at 25° C. for 6 hours, and germinated in a 28° C. biochemical incubator (darkness). […] A certain amount of water was added to the enamel pan regularly to keep the soil moist.\n(§3) The technical materials were all dissolved in acetone, and diluted with an aqueous solution containing 0.1% emulsifier T-80. The dilution is performed as required.\n(§4) A ratio of the active ingredient A to the active ingredient B and amounts thereof in each group depends on the characteristics and toxicity of the two agents, as well as the main application purpose of a corresponding formulation. Based on the pre-tests in this study, the dosage of the active ingredient A and the active ingredient B applied alone and in combination were shown in the tables, and a total 15 groups were designed. Water containing the solvent and emulsifier same with the above groups but free of the agents was used as a blank control.\n(§5) 3 pots with 20 weed seeds per pot were treated in one treatment with […] per treatment, that is, a total of 60 weeds were treated in one treatment.\n(§6) The agents were used for only once in the experiment. In the stage of weeds with 2 leaves and 1 core, the weeds were thinned out to maintain 15 weeds per pot and 45 weeds for each treatment, then continued to be cultured to 3-5-leaves stage of Capsella bursa-pastoris and Myosoton aquaticum, and 3-leaves and 1-core stage of Alopecurus japonicus, and treated.\n(§7) The well-cultured weeds were evenly placed on a platform with an area of 0.5 m^2, and a solution of agents was sprayed on the stems and leaves thereof by the 3WP-2000-type walking spray tower at a dosage of 30 kg/ha and at a spray pressure of 0.3 MPa. After all the solution was sprayed, the valve was closed. After 30 seconds, the door of the spray tower was opened, and the nutritional bowl was taken out. Then the valve was opened, and the spray tube was cleaned by spraying 50 ml of water.\n(§8) A pot-culture method was employed. For the cultivation of weeds, please refer to the Section 1.2, and “Pesticide guidelines for laboratory bioactivity tests—herbicides”. As to a method for applying agents, please refer to the section 2.3.2, that is, a method for treating stems and leaves was employed.\n(§9) A method for investigating absolute number was employed, wherein whole seedlings of survival weeds were cut off with a blade along the soil surface, and the fresh weight of the weeds was weighed with an analytical balance. For dead weeds, the fresh weight thereof was zero.\n(§10) The investigation was performed after 20 days of the treatment for only once.\n(§11) Wherein, in the formula, X represented the fresh weight inhibition rate of the active ingredient A in a dosage of P, and Y represented the fresh weight inhibition rate of the active ingredient B in a dosage of Q."}, "Myosoton aquaticum": {"test_system": "Myosoton aquaticum", "assay": "pot-culture method, stem and leaf treatment in greenhouse, fresh weight inhibition rate 20 days after treatment (Gowing method)", "format": "in vivo", "procedure": "as §1, §2, §3, §4, §5, §6, §7, §8, §9, §10, §11"}},
  "data": [
    {"compound": "CC(C)CCCCCOC(=O)COc1ccc(Cl)cc1Cl", "note": "[2,4-D isooctyl ester, reference compound]", "values": [
      {"measurement": "actual fresh weight inhibition rate (%)", "setting": "Capsella bursa-pastoris; dosage 200 g/hm^2", "value": 21.1, "unit": "%"},
      {"measurement": "actual fresh weight inhibition rate (%)", "setting": "Capsella bursa-pastoris; dosage 350 g/hm^2", "value": 34.2, "unit": "%"},
      {"measurement": "actual fresh weight inhibition rate (%)", "setting": "Capsella bursa-pastoris; dosage 500 g/hm^2", "value": 55.9, "unit": "%"},
      {"measurement": "actual fresh weight inhibition rate (%)", "setting": "Myosoton aquaticum; dosage 200 g/hm^2", "value": 15.4, "unit": "%"},
      {"measurement": "actual fresh weight inhibition rate (%)", "setting": "Myosoton aquaticum; dosage 350 g/hm^2", "value": 26.3, "unit": "%"},
      {"measurement": "actual fresh weight inhibition rate (%)", "setting": "Myosoton aquaticum; dosage 500 g/hm^2", "value": 47.9, "unit": "%"}
    ]},
    {"compound": "CCCCOC(=O)COc1ccc(Cl)cc1Cl", "note": "[2,4-butyl ester, 2,4-D butyl ester, reference compound]", "values": [
      {"measurement": "actual fresh weight inhibition rate (%)", "setting": "Capsella bursa-pastoris; dosage 200 g/hm^2", "value": 23.4, "unit": "%"},
      {"measurement": "actual fresh weight inhibition rate (%)", "setting": "Capsella bursa-pastoris; dosage 350 g/hm^2", "value": 42.9, "unit": "%"},
      {"measurement": "actual fresh weight inhibition rate (%)", "setting": "Capsella bursa-pastoris; dosage 500 g/hm^2", "value": 55.6, "unit": "%"},
      {"measurement": "actual fresh weight inhibition rate (%)", "setting": "Myosoton aquaticum; dosage 200 g/hm^2", "value": 18.4, "unit": "%"},
      {"measurement": "actual fresh weight inhibition rate (%)", "setting": "Myosoton aquaticum; dosage 350 g/hm^2", "value": 29.8, "unit": "%"},
      {"measurement": "actual fresh weight inhibition rate (%)", "setting": "Myosoton aquaticum; dosage 500 g/hm^2", "value": 49.3, "unit": "%"}
    ]},
    {"compound": "N#Cc1cc(Br)c(O)c(Br)c1", "note": "[Bromoxynil]", "values": [
      {"measurement": "pest or weed control at 240 g/ha", "setting": "Capsella bursa-pastoris; Capsella bursa-pastoris, 480 h, dosage 240 g/hm^2, read-out: actual fresh weight inhibition rate", "value": 40.6, "unit": "%"},
      {"measurement": "pest or weed control at 360 g/ha", "setting": "Capsella bursa-pastoris; Capsella bursa-pastoris, 480 h, dosage 360 g/hm^2, read-out: actual fresh weight inhibition rate", "value": 58.5, "unit": "%"},
      {"measurement": "pest or weed control at 480 g/ha", "setting": "Capsella bursa-pastoris; Capsella bursa-pastoris, 480 h, dosage 480 g/hm^2, read-out: actual fresh weight inhibition rate", "value": 81.3, "unit": "%"},
      {"measurement": "pest or weed control at 240 g/ha", "setting": "Myosoton aquaticum; Myosoton aquaticum, 480 h, dosage 240 g/hm^2, read-out: actual fresh weight inhibition rate", "value": 30.5, "unit": "%"},
      {"measurement": "pest or weed control at 360 g/ha", "setting": "Myosoton aquaticum; Myosoton aquaticum, 480 h, dosage 360 g/hm^2, read-out: actual fresh weight inhibition rate", "value": 38.7, "unit": "%"},
      {"measurement": "pest or weed control at 480 g/ha", "setting": "Myosoton aquaticum; Myosoton aquaticum, 480 h, dosage 480 g/hm^2, read-out: actual fresh weight inhibition rate", "value": 47.9, "unit": "%"}
    ]},
    {"compound": "Cc1cc(Cl)ccc1OCC(=O)O", "note": "[MCPA, 2-methyl-4-chlorophenoxy acetic acid, reference compound]", "values": [
      {"measurement": "actual fresh weight inhibition rate (%)", "setting": "Capsella bursa-pastoris; dosage 300 g/hm^2", "value": 33.2, "unit": "%"},
      {"measurement": "actual fresh weight inhibition rate (%)", "setting": "Capsella bursa-pastoris; dosage 600 g/hm^2", "value": 41.7, "unit": "%"},
      {"measurement": "actual fresh weight inhibition rate (%)", "setting": "Capsella bursa-pastoris; dosage 900 g/hm^2", "value": 60.5, "unit": "%"},
      {"measurement": "actual fresh weight inhibition rate (%)", "setting": "Myosoton aquaticum; dosage 300 g/hm^2", "value": 23.8, "unit": "%"},
      {"measurement": "actual fresh weight inhibition rate (%)", "setting": "Myosoton aquaticum; dosage 600 g/hm^2", "value": 35.6, "unit": "%"},
      {"measurement": "actual fresh weight inhibition rate (%)", "setting": "Myosoton aquaticum; dosage 900 g/hm^2", "value": 45.8, "unit": "%"}
    ]},
    {"compound": "Cc1cc(Cl)ccc1OCC(=O)[O-].[Na+]", "note": "[MCPA-Na, reference compound]", "values": [
      {"measurement": "actual fresh weight inhibition rate (%)", "setting": "Capsella bursa-pastoris; dosage 400 g/hm^2", "value": 22.1, "unit": "%"},
      {"measurement": "actual fresh weight inhibition rate (%)", "setting": "Capsella bursa-pastoris; dosage 800 g/hm^2", "value": 38.3, "unit": "%"},
      {"measurement": "actual fresh weight inhibition rate (%)", "setting": "Capsella bursa-pastoris; dosage 1200 g/hm^2", "value": 56.7, "unit": "%"},
      {"measurement": "actual fresh weight inhibition rate (%)", "setting": "Myosoton aquaticum; dosage 400 g/hm^2", "value": 24.8, "unit": "%"},
      {"measurement": "actual fresh weight inhibition rate (%)", "setting": "Myosoton aquaticum; dosage 800 g/hm^2", "value": 36.9, "unit": "%"},
      {"measurement": "actual fresh weight inhibition rate (%)", "setting": "Myosoton aquaticum; dosage 1200 g/hm^2", "value": 50.9, "unit": "%"}
    ]},
    {"compound": "Cc1cc(Cl)ccc1OCC(=O)OCCCCCC(C)C", "note": "[MCPA-isooctyl, reference compound]", "values": [
      {"measurement": "actual fresh weight inhibition rate (%)", "setting": "Capsella bursa-pastoris; dosage 600 g/hm^2", "value": 33.2, "unit": "%"},
      {"measurement": "actual fresh weight inhibition rate (%)", "setting": "Capsella bursa-pastoris; dosage 1200 g/hm^2", "value": 41.7, "unit": "%"},
      {"measurement": "actual fresh weight inhibition rate (%)", "setting": "Capsella bursa-pastoris; dosage 1800 g/hm^2", "value": 60.5, "unit": "%"},
      {"measurement": "actual fresh weight inhibition rate (%)", "setting": "Myosoton aquaticum; dosage 600 g/hm^2", "value": 23.8, "unit": "%"},
      {"measurement": "actual fresh weight inhibition rate (%)", "setting": "Myosoton aquaticum; dosage 1200 g/hm^2", "value": 35.6, "unit": "%"},
      {"measurement": "actual fresh weight inhibition rate (%)", "setting": "Myosoton aquaticum; dosage 1800 g/hm^2", "value": 45.8, "unit": "%"}
    ]},
    {"compound": "CC(C)N1C(=O)c2ccccc2NS1(=O)=O", "note": "[bentazon]", "values": [
      {"measurement": "pest or weed control at 500 g/ha", "setting": "Capsella bursa-pastoris; 480 h, Capsella bursa-pastoris, 500 g/hm^2, read-out: actual fresh weight inhibition rate", "value": 38.5, "unit": "%"},
      {"measurement": "pest or weed control at 750 g/ha", "setting": "Capsella bursa-pastoris; 480 h, Capsella bursa-pastoris, 750 g/hm^2, read-out: actual fresh weight inhibition rate", "value": 58.2, "unit": "%"},
      {"measurement": "pest or weed control at 1000 g/ha", "setting": "Capsella bursa-pastoris; 480 h, Capsella bursa-pastoris, 1000 g/hm^2, read-out: actual fresh weight inhibition rate", "value": 73.1, "unit": "%"},
      {"measurement": "pest or weed control at 500 g/ha", "setting": "Myosoton aquaticum; Myosoton aquaticum, 480 h, Myosoton aquaticum, 500 g/hm^2, read-out: actual fresh weight inhibition rate", "value": 33.4, "unit": "%"},
      {"measurement": "pest or weed control at 750 g/ha", "setting": "Myosoton aquaticum; Myosoton aquaticum, 480 h, Myosoton aquaticum, 750 g/hm^2, read-out: actual fresh weight inhibition rate", "value": 46.2, "unit": "%"},
      {"measurement": "pest or weed control at 1000 g/ha", "setting": "Myosoton aquaticum; Myosoton aquaticum, 480 h, Myosoton aquaticum, 1000 g/hm^2, read-out: actual fresh weight inhibition rate", "value": 58.7, "unit": "%"}
    ]},
    {"compound": "CCCCCCCC(=O)Oc1c(Br)cc(C#N)cc1Br", "note": "[bromoxynil octanoate]", "values": [
      {"measurement": "pest or weed control at 190 g/ha", "setting": "Capsella bursa-pastoris; Capsella bursa-pastoris, 480 h, dosage 190 g/hm^2, read-out: actual fresh weight inhibition rate", "value": 42.7, "unit": "%"},
      {"measurement": "pest or weed control at 375 g/ha", "setting": "Capsella bursa-pastoris; Capsella bursa-pastoris, 480 h, dosage 375 g/hm^2, read-out: actual fresh weight inhibition rate", "value": 55.7, "unit": "%"},
      {"measurement": "pest or weed control at 560 g/ha", "setting": "Capsella bursa-pastoris; Capsella bursa-pastoris, 480 h, dosage 560 g/hm^2, read-out: actual fresh weight inhibition rate", "value": 78.6, "unit": "%"},
      {"measurement": "pest or weed control at 190 g/ha", "setting": "Myosoton aquaticum; Myosoton aquaticum, 480 h, dosage 190 g/hm^2, read-out: actual fresh weight inhibition rate", "value": 25.8, "unit": "%"},
      {"measurement": "pest or weed control at 375 g/ha", "setting": "Myosoton aquaticum; Myosoton aquaticum, 480 h, dosage 375 g/hm^2, read-out: actual fresh weight inhibition rate", "value": 38.5, "unit": "%"},
      {"measurement": "pest or weed control at 560 g/ha", "setting": "Myosoton aquaticum; Myosoton aquaticum, 480 h, dosage 560 g/hm^2, read-out: actual fresh weight inhibition rate", "value": 57.3, "unit": "%"}
    ]},
    {"compound": "Cc1nn(-c2cc(CC(Cl)C(=O)O)c(Cl)cc2F)c(=O)n1C(F)F", "note": "(stereo not drawn) [carfentrazone, reference compound]", "values": [
      {"measurement": "actual fresh weight inhibition rate (%)", "setting": "Capsella bursa-pastoris; dosage 12 g/hm^2", "value": 55.2, "unit": "%"},
      {"measurement": "actual fresh weight inhibition rate (%)", "setting": "Capsella bursa-pastoris; dosage 24 g/hm^2", "value": 71.3, "unit": "%"},
      {"measurement": "actual fresh weight inhibition rate (%)", "setting": "Capsella bursa-pastoris; dosage 36 g/hm^2", "value": 80.5, "unit": "%"},
      {"measurement": "actual fresh weight inhibition rate (%)", "setting": "Myosoton aquaticum; dosage 12 g/hm^2", "value": 32.1, "unit": "%"},
      {"measurement": "actual fresh weight inhibition rate (%)", "setting": "Myosoton aquaticum; dosage 24 g/hm^2", "value": 45.8, "unit": "%"},
      {"measurement": "actual fresh weight inhibition rate (%)", "setting": "Myosoton aquaticum; dosage 36 g/hm^2", "value": 60.1, "unit": "%"}
    ]}
  ]
}
